From ChEMBL document CHEMBL5038667, “Discovery of an Amino Acid-Modified Near-Infrared Aza-BODIPY Photosensitizer as an Immune Initiator for Potent Photodynamic Therapy in Melanoma” (J Med Chem, 2022)
In brackets after ≈: the same amount, converted by molar mass. Activity calls are given as the source filed them. The calls are words filed in the database; no cut-off is given here.

Experiments:
[1] = system: B16-F10; test: Antitumor activity against mouse B16-F10 cells implanted in C57BL/6 mouse assessed as inhibition of tumor growth at 2 mg/kg, iv irradiated with 60 J/cm^2 laser light by IVIS imaging analysis measured upto 48 hrs; format: functional, organism-based; details: time hrs <=48
[2] = Toxicity in C57BL/6 mouse harboring mouse B16-F10 cells assessed as change in body weight at 2 mg/kg, iv irradiated with 60 J/cm^2 laser light measured upto 14 days; format: organism-based; details: in vivo, 336 h, time <=14 day
[3] = Aqueous solubility in PBS; format: physicochemical; details: buffer
[4] = Lipophilicity, logP of compound; format: physicochemical; details: octanol/water
[5] = system: B16-F10; test: Dark toxicity against mouse B16-F10 cells assessed as reduction in cell viability incubated for 16 hrs by CCK-8 assay; format: cell-based; details: B16-F10, 16 h
[6] = Phototoxicity against mouse B16-F10 cells assessed as reduction in cell viability incubated for 16 hrs followed by irradiated with 54 J/cm^2 of light dose and further incubated for 24 hrs by CCK-8 assay; format: toxicity, cell-based; details: B16-F10, light or radiation study
[7] = system: A-375; test: Dark toxicity against human A-375 cells assessed as reduction in cell viability incubated for 16 hrs by CCK-8 assay; format: functional, cell-based; details: A-375, 16 h
[8] = Phototoxicity against human A-375 cells assessed as reduction in cell viability incubated for 16 hrs followed by irradiated with 54 J/cm^2 of light dose and further incubated for 24 hrs by CCK-8 assay; format: toxicity, cell-based; details: A-375, light or radiation study
[9] = system: HeLa; test: Dark toxicity against human HeLa cells assessed as reduction in cell viability incubated for 16 hrs by CCK-8 assay; format: functional, cell-based
[10] = Phototoxicity against human HeLa cells assessed as reduction in cell viability incubated for 16 hrs followed by irradiated with 54 J/cm^2 of light dose and further incubated for 24 hrs by CCK-8 assay; format: toxicity, cell-based; details: light or radiation study
[11] = system: B16-F10; test: Antitumor activity against mouse B16-F10 cells implanted in C57BL/6 mouse assessed as tumor regrowth at 2 mg/kg, iv upto after 6 days irradiated with 60 J/cm^2 laser light by IVIS imaging analysis; format: functional, organism-based; details: time 6.0 day
[12] = system: B16-F10; test: Antitumor activity against mouse B16-F10 cells implanted in C57BL/6 mouse assessed as tumor destruction at 2 mg/kg, iv irradiated with 60 J/cm^2 laser light measured after 14 days by hematoxylin and eosin based microscopic analysis; format: functional, organism-based; details: time 14.0 day

Row | Structure (SMILES) | Activity [1] | Activity [2] | solubility [3] [µM] | logP [4] | IC50 [5] [nM] | IC50 [6] [nM] | IC50 [7] [nM] | IC50 [8] [nM] | IC50 [9] [nM] | IC50 [10] [nM] | Activity [11] | Activity [12]
1 | C=Cc1c(C)c2cc3nc(c(CC(=O)O)c4[nH]c(cc5nc(cc1[nH]2)C(C)=C5CC)c(C)c4C(=O)O)[C@@H](CCC(=O)O)[C@@H]3C [CHLORIN E6] | inactive | Non-Toxic | – | – | – | – | – | – | – | – | – | –
2 | COc1ccc(C2=[N+]3C(=Nc4c(-c5ccccc5)c5c(n4[B-]3(F)F)-c3ccc(OCC(=O)O)cc3CC5)C(c3ccccc3)=C2I)cc1 | – | – | 28.4 (≈ 21.4 µg/mL) | 0.94 | > 50000 | 104 | > 50000 | 142 | > 50000 | 56 | – | –
3 | COc1ccc(C2=[N+]3C(=Nc4c(-c5ccccc5)cc(-c5ccc(OC)cc5)n4[B-]3(F)F)C(c3ccccc3)=C2I)cc1 | Active | Non-Toxic | < 1 | > 3 | > 50000 | 276 | > 50000 | 254 | > 50000 | 76 | Active | Active
4 | COc1ccc(C2=[N+]3C(=Nc4c(-c5ccccc5)c5c(n4[B-]3(F)F)-c3ccc(OC)cc3CC5)C(c3ccccc3)=C2I)cc1 | – | – | < 1 | > 3 | – | – | – | – | – | – | – | –
5 | COc1ccc2c(c1)CCc1c(-c3ccccc3)c3n(c1-2)[B-](F)(F)[N+]1=C(c2ccc(OCC(=O)O)cc2)C(I)=C(c2ccccc2)C1=N3 | – | – | 21.8 (≈ 16.4 µg/mL) | 0.92 | > 50000 | 346 | > 50000 | 320 | > 50000 | 274 | – | –
6 | COc1ccc2c(c1)CCc1c(-c3ccccc3)c3n(c1-2)[B-](F)(F)[N+]1=C(c2ccc(OCC(=O)N[C@@H](CC(=O)O)C(=O)O)cc2)C(I)=C(c2ccccc2)C1=N3 | – | – | 115 (≈ 100 µg/mL) | -0.73 | > 250000 | 126 | > 250000 | 148 | > 250000 | 55 | – | –
7 | COc1ccc(C2=[N+]3C(=Nc4c(-c5ccccc5)c5c(n4[B-]3(F)F)-c3ccc(OCC(=O)N[C@@H](CCC(=O)O)C(=O)O)cc3CC5)C(c3ccccc3)=C2I)cc1 | – | – | 158 (≈ 139 µg/mL) | -0.74 | > 250000 | 159 | > 250000 | 166 | > 250000 | 78 | – | –
8 | COc1ccc2c(c1)CCc1c(-c3ccccc3)c3n(c1-2)[B-](F)(F)[N+]1=C(c2ccc(OCC(=O)N[C@@H](CCC(=O)O)C(=O)O)cc2)C(I)=C(c2ccccc2)C1=N3 | – | – | 110 (≈ 96.7 µg/mL) | -0.71 | > 250000 | 212 | > 250000 | 284 | > 250000 | 119 | – | –
